{
  "source": "patent US20160312315A1",
  "about": "“Methods and Compositions for Determining Virus Susceptibility to Integrase Inhibitors” (Laboratory Corporation of America Holdings, priority 2011, published 2016)",
  "type_in_all_cases": "cell-based, HIV-1",
  "key": {"[1]": {"system": "other Y143X plus T97A site directed mutant viruses", "description": "(§1) Raltegravir susceptibility tests performed with resistance test vectors were carried out using packaging host and target host cells consisting of the human embryonic kidney cell line 293. Susceptibility tests were carried out with the RTV libraries by using viral particles comprising the RTV libraries to infect a host cell in which the expression of the indicator gene is measured. The amount of indicator gene (luciferase) activity detected in infected cells is used as a direct measure of “infectivity,” i.e., the ability of the virus to complete a single round of replication. Thus, drug susceptibility can be determined by plotting the amount of luciferase activity produced by patient derived viruses in the presence of varying concentrations of the antiviral drug. By identifying the concentration of drug at which luciferase activity is half-maximum, the IC50 of the virus from which patient-derived segment(s) were obtained for the antiretroviral agent can be determined. […]\n(§2) In the susceptibility tests, packaging host (293) cells were seeded in 10-cm-diameter dishes and were transfected one day after plating with test vector plasmid DNA and the envelope expression vector. […] Alternatively, cells were lysed, and luciferase was measured by adding Steady-Glo (Promega Corp.; Madison, Wis.) reagent directly to each well without aspirating the culture media from the well. […]"}, "[2]": {"system": "other Y143X (Y143H/C/S/G) site directed mutant viruses", "experiment": "PhenoSense raltegravir susceptibility assay, site directed mutant viruses", "details": "other Y143X substitutions alone, SDM viruses vs NL4-3", "description": "(§3) Raltegravir susceptibility tests performed with resistance test vectors were carried out using packaging host and target host cells consisting of the human embryonic kidney cell line 293. Susceptibility tests were carried out with the RTV libraries by using viral particles comprising the RTV libraries to infect a host cell in which the expression of the indicator gene is measured. The amount of indicator gene (luciferase) activity detected in infected cells is used as a direct measure of “infectivity,” i.e., the ability of the virus to complete a single round of replication. Thus, drug susceptibility can be determined by plotting the amount of luciferase activity produced by patient derived viruses in the presence of varying concentrations of the antiviral drug. By identifying the concentration of drug at which luciferase activity is half-maximum, the IC50 of the virus from which patient-derived segment(s) were obtained for the antiretroviral agent can be determined. The IC50 provides a direct measure of the susceptibility of the HIV infecting the patient to raltegravir.\nas §2, with “vector. Transfections were performed using a calcium-phosphate co-precipitation procedure. The cell culture media containing the DNA precipitate was replaced with fresh medium, from one to 24 hours, after transfection.” for “vector.”\n(§4) Site directed mutant (SDM) viruses were created that had only the specific integrase mutation listed on the x-axis of FIG. 8A, 8B, or 8C. FIGS. 8A, 8B, and 8C are graphs showing the fold change (FC) in raltegravir susceptibility of the SDM viruses, as compared to the raltegravir susceptibility of an NL4-3 virus and determined by the PhenoSense assay. […]"}, "[3]": {"system": "Y143R site directed mutant virus", "experiment": "PhenoSense raltegravir susceptibility assay, site directed mutant viruses", "details": "Y143R mutation alone, SDM virus vs NL4-3", "description": "as §3\nas §2, with “vector. Transfections were performed using a calcium-phosphate co-precipitation procedure. The cell culture media containing the DNA precipitate was replaced with fresh medium, from one to 24 hours, after transfection.” for “vector.”\nas §4"}, "[4]": {"system": "Y143R plus T97A site directed mutant virus", "experiment": "PhenoSense raltegravir susceptibility assay, site directed mutant viruses", "details": "SDM virus vs NL4-3", "description": "as §3\nas §2, with “vector. Transfections were performed using a calcium-phosphate co-precipitation procedure. The cell culture media containing the DNA precipitate was replaced with fresh medium, from one to 24 hours, after transfection.” for “vector.”\nas §4"}, "[5]": {"system": "Y143C/G/S plus S230R site directed mutant viruses", "experiment": "PhenoSense raltegravir susceptibility assay, site directed mutant viruses", "details": "SDM viruses vs NL4-3", "description": "as §1, §2"}, "[6]": {"system": "Y143R plus S230R site directed mutant virus", "experiment": "PhenoSense raltegravir susceptibility assay, site directed mutant viruses", "details": "SDM virus, compared with Y143R alone", "description": "as §1, §2"}},
  "data": [
    {"molecule": "Cc1nnc(C(=O)NC(C)(C)c2nc(C(=O)NCc3ccc(F)cc3)c(O)c(=O)n2C)o1", "note": "[raltegravir]", "values": [
      {"measurement": "fold change in IC50 (FC), reduction in RAL susceptibility", "setting": "[1]", "result": "7-16"},
      {"measurement": "fold change in IC50 (FC), reduction in RAL susceptibility", "setting": "[2]", "result": "3-6"},
      {"measurement": "fold change in IC50 (FC), reduction in RAL susceptibility", "setting": "[3]", "result": 20},
      {"measurement": "fold change in IC50 (FC), reduction in RAL susceptibility", "setting": "[4]", "result": 70},
      {"measurement": "fold change in IC50 (FC), reduction in RAL susceptibility", "setting": "[5]", "result": "15-24"},
      {"measurement": "further reduction in RAL susceptibility on addition of S230R", "setting": "[6]", "result": "did not"}
    ]}
  ]
}
